Assay results reported in patent US12540141B2, “Spiropyrrolidine derived antiviral agents” (priority 2020, dated 2026).
Like-named read-outs stand apart in the source and are kept apart here.

What was measured:
[1] = target: SARS-CoV-2 3CL-protease (Severe acute respiratory syndrome coronavirus 2, UniProt P0DTD1); assay: SARS-CoV-2 3C-Like (3CL) Protease Fluorescence Assay (FRET); type: biochemical; conditions: SARS-CoV-2 3CL-protease 10 nM, 30 min preincubation at RT, substrate 40 μM
[2] = test system: 229E human corona virus (hCoV); assay: 229E Live Virus Assay (MRC-5 cells, CPE read by ATPlite); type: cell-based, hCoV-229E
[3] = Human coronavirus 229E, MRC5, hCoV-229E live virus in MRC-5 cells, MOI 0.05, CPE by ATPlite, run in duplicate

SMILES	IC50 [1] [nM]	EC50 [2, 3] [nM]	EC50 ([2]; hCoV-229E live virus in MRC-5 cells, MOI 0.05, CPE by ATPlite, run in duplicate) [nM]	EC50 [2] [nM]
COc1cc(Cl)cc(C(=O)N(C)[C@@H](CC(C)C)C(=O)N2C[C@]3(C[C@H]2C#N)C(=O)Nc2ccccc23)c1 [Example 180]	< 100	< 100	–	–
CC(C)C[C@@H](C(=O)N1C[C@]2(C[C@H]1C#N)C(=O)Nc1ccccc12)N(C)C(=O)c1ccc2ccc(Br)cc2c1 [Example 230]	100 to 1000	< 100	–	–
CC(C)C[C@@H](C(=O)N1C[C@]2(C[C@H]1C#N)C(=O)Nc1ccccc12)N(C)C(=O)c1ccc(-c2ccccc2)cn1 [Example 232]	100 to 1000	< 100	–	–
COc1cc(C(=O)N(C)[C@@H](CC(C)C)C(=O)N2C[C@]3(C[C@H]2C#N)C(=O)Nc2ccccc23)cn2cc(C(F)F)nc12 [Example 255]	–	–	< 100	–
CC(C)C[C@@H](C(=O)N1C[C@]2(C[C@H]1C#N)C(=O)Nc1ccccc12)N(C)C(=O)c1cc(OC2CC2)c2c(c1)=NC(C1CC1)N=2 (stereo partly drawn) [Example 307]	100 to 1000	100 to 1000	–	–
COc1cc(C(=O)N(C)[C@@H](CC(C)C)C(=O)N2C[C@]3(C[C@H]2C#N)C(=O)Nc2ccccc23)cc2c1=NC(C1CC1)N=2 (stereo partly drawn) [Example 308]	< 100	100 to 1000	–	–
CN(C(=O)[C@@H](O)c1ccc(F)cc1)[C@@H](CC1CC1)C(=O)N1C[C@]2(C[C@H]1C#N)C(=O)Nc1ccccc12 [Example 414, (S)—N—((S)-1-((3R,5′S)-5′-cyano-2-oxospiro[indoline-3,3′-pyrrolidin]-1′-yl)-3-cyclopropyl-1-oxopropan-2-yl)-2-(4-fluorophenyl)-2-hydroxy-N-methyl acetamide]	< 100	< 100	–	–
CN(C(=O)[C@H](O)c1ccc(F)cc1)[C@@H](CC1CC1)C(=O)N1C[C@]2(C[C@H]1C#N)C(=O)Nc1ccccc12 [Example 415]	< 100	< 100	–	–
[2H]C([2H])([2H])N(C(=O)[C@H](O)c1ccc(F)cc1)[C@@H](CC1CC1)C(=O)N1C[C@]2(C[C@H]1C#N)C(=O)Nc1ccccc12 [Example 422]	< 100	< 100	–	–
C[C@H](OC(=O)N[C@@H](CC(C)(C)C)C(=O)N1C[C@]2(C[C@H]1C#N)C(=O)Nc1ccc(Cl)cc12)c1ccc(F)cc1 [Example 494]	–	–	–	100 to 1000
